Values quoted from earlier work as cited in patent US9572829B2, “Treatment of ocular disorders” (Massachusetts Eye and Ear Infirmary, priority 2004, dated 2017).

Parameters: unit not given here
Settings: typical value, general statement

C=Cc1c(C)c2cc3nc(c(CC(=O)N[C@@H](CC(=O)O)C(=O)O)c4[nH]c(cc5nc(cc1[nH]2)C(C)=C5CC)c(C)c4C(=O)O)[C@@H](CCC(=O)O)[C@@H]3C [N-aspartyl chlorin e6]
Time that photosensitizer persists in the target neovasculature: about twenty

CC(=O)[O-].CC(=O)[O-].CCc1c(CC)c2cc3nc(cnc4cc(OCCOCCOCCOC)c(OCCOCCOCCOC)cc4ncc4nc(cc1[n-]2)C(CCCO)=C4C)C(C)=C3CCCO.O.[Lu+3] [lutetium texaphyrin]
Time that photosensitizer persists in the target neovasculature: about twenty

benzoporphyrin derivative
Time that photosensitizer persists in the target neovasculature: about fifty
